# Measured values reported in article PMC8298375 (Naunyn-Schmiedeberg's Archives of Pharmacology, 2021).
# Columns and labels:
# [1] = test system: ICV colchicine-induced dementia rats; experiment: Morris water maze test, ICV colchicine-induced dementia (chronic model); assay type: in vivo, Wistar rats; conditions: Mean ± SEM; for Escape latency, 14th day / Escape latency, 21st day: colchicine 15 µg ICV; for Escape latency, Probe day: colchicine model
# Description: (§1) In the chronic model, the rats were trained for MWM and PAT tasks for the first 4 days followed by intracerebroventricular (i.c.v.) administration of colchicine on day 6. After establishing dementia on day 10 of the colchicine administration, the drug treatment was initiated from day 11 to 24. The effects of different drug treatments on dementia were assessed on days 14 and 21. On these particular days, the swim test was performed 15 min after the administration of different treatments and escape latencies; residence time and peripheral swim time were recorded (Nampoothiri [2017]). The retention trials for PAT on day 17 and 23 were performed on days 17 and 23, 15 min after the administration of the drug.
# (§2) On the 6th day, surgery was performed as described (Bokare et al. [2018]). Rat was anesthetized with sodium pentobarbital (45 mg/kg, i.p.) and positioned in stereotaxic apparatus. The head was positioned in a frame, and a midline sagittal incision was made in the scalp. Two holes were drilled through the skull at coordinates (0.8 mm posterior to bregma, 1.8 mm lateral to the sagittal suture, and 3.6 mm beneath the cortical surface) to place the injection cannula. Rats were intracerebroventricularly infused with either artificial cerebrospinal fluid (ACSF; in mM: 147 NaCl, 2.9 KCl, 1.6 MgCl2, 1.7 CaCl2, and 2.2 dextrose) or 15 µg of colchicine in 5 µL ACSF using a Hamilton microsyringe positioned in the injection cannula. To promote back diffusion, the microsyringe was left in place for 2 min following injection. The scalp was then closed with a suture. After surgery, all animals received gentamicin (5 mg/kg, i.p.) to prevent sepsis. Special care was taken during the postoperative period to provide food and water inside the cage of the rat. In sham-operated rats, surgery was identical except for injection of the solution.
# A modified Morris water maze test was used (Nampoothiri [2017]). The pool was positioned in the middle of a dimly lit testing room with distant visual clues that could be used by rats for spatial orientation. The maze consisted of a circular water pool (140 × 45 cm) divided into four equally sized quadrants (NE, SE, SW, and NW) by two imaginary diagonal lines running across the center of the pool. The pool was filled with water maintained at a temperature of 23 ± 2 °C. In the NE quadrant (target quadrant) equidistant from the center and edge of the pool, a platform of 25-cm height and 10-cm diameter was invisibly placed submerged 1 cm below the water surface. Rats were gently placed in each quadrant facing the wall and trained to locate the hidden black platform, and the trial was terminated when the rat reached the platform or after 60 s. Accordingly, rats were subjected to one session of four trials per day for four consecutive days. All rats were left on the platform for 30 s and then removed and towel dried. Inter-trial interval was kept a constant 180 s throughout the study. In the probe trial, platform was removed, and rats were allowed to swim for a 60-s trial period. Data was collected in the form of escape latencies to find the platform; percent of time spent over the target quadrant.
# [2] = test system: ICV colchicine-induced dementia rats; experiment: Passive avoidance test, ICV colchicine-induced dementia (chronic model); assay type: in vivo, Wistar rats; conditions: for Retention test, Latency time, 1st / Retention test, No. of crossings, 1st / Retention test, Time spent in darker chamber, 1st: 1st retention test, before colchicine administration; for Retention test, Latency time, 2nd / Retention test, No. of crossings, 2nd / Retention test, Time spent in darker chamber, 2nd: 2nd retention test, day 17; for Retention test, No. of crossings, 3rd / Retention test, Latency time, 3rd / Retention test, Time spent in darker chamber, 3rd: 3rd retention test, day 23; for Acquisition test, 2nd day: colchicine model
# Description: as §1, §2
# The passive avoidance apparatus consists of a larger illuminated compartment and a smaller dark compartment. Each consists of a square box, with a floor grid of 50 × 50 cm and wooden walls of 35-cm height in larger compartment. Larger box was illuminated by 15 W Philips CFL lamp. A smaller dark compartment of 15 × 15 cm with an electrified floor is connected to a constant current stimulator. An opening 6 × 6 cm in between the two compartments was closed using a transparent plexiglass sliding door. The test procedure was carried out in three phases, exploration, learning, and retention (Praveenkumar [2019]).
# First day, the animal was placed in the center of the illuminated larger compartment facing away from the entrance to the small darker compartment and allowed to explore the apparatus, i.e., both compartments for 3 min. Total time spent in the larger and smaller compartments and the number of crossings (from larger to smaller compartments and vice versa; a measure of exploratory behavior) were noted. On the second day, animal was placed in the illuminated larger compartment facing away from the entrance to the darker compartment. Once the animal entered the darker compartment, the entrance to the larger compartment was closed, and three strong electric foot shocks (50 Hz, 0.5 mA, 2 s) with 10-s intervals were applied. On the third day, rats were placed in the illuminated larger compartment and allowed to explore both the compartments for 3 min. The parameters assessed are latency time to enter into darker compartment, time spent in the darker and brighter compartments, and the number of crossings between the compartments.
compound,measurement,setting,value
"CCN(C)C(=O)Oc1cccc([C@H](C)N(C)C)c1 [ORSM, rivastigmine]","Escape latency, 14th day",[1]; listed as COL + ORSM,5.89 ± 0.7027 s
same,"Escape latency, 21st day",[1]; listed as COL + ORSM,5.28 ± 0.3809 c s
same,"Escape latency, Probe day",[1]; listed as COL + ORSM,2.83 ± 0.3181 s
same,"Retention test, Latency time, 1st",[2]; listed as COL + ORSM,127.8 ± 21.13 s
same,"Retention test, No. of crossings, 1st",[2]; listed as COL + ORSM,1.83±0.54
same,"Retention test, Time spent in darker chamber, 1st",[2]; listed as COL + ORSM,38.5 ± 16.47 s
same,"Retention test, Latency time, 2nd",[2]; listed as COL + ORSM,90.55 ± 22.83 s
same,"Retention test, No. of crossings, 2nd",[2]; listed as COL + ORSM,3.00±0.63
same,"Retention test, Time spent in darker chamber, 2nd",[2]; listed as COL + ORSM,68 ± 23.51 s
same,"Retention test, No. of crossings, 3rd",[2],3.17±0.48
same,"Retention test, Latency time, 3rd",[2]; listed as COL + ORSM,48.83 ± 8.28 s
same,"Retention test, Time spent in darker chamber, 3rd",[2]; listed as COL + ORSM,81.33 ± 10.56 s
same,"Acquisition test, 2nd day",[2]; listed as COL + ORSM,8.91 ± 2.049
"CCN(C)C(=O)Oc1cccc([C@H](C)N(C)C)c1 [INRSM, rivastigmine]","Escape latency, 14th day",[1]; listed as COL + INRSM,5.28 ± 0.7425 s
same,"Escape latency, 21st day",[1]; listed as COL + INRSM,4.67 ± 0.3849 c s
same,"Escape latency, Probe day",[1]; listed as COL + INRSM,3.28 ± 0.5800 s
same,"Retention test, Latency time, 1st",[2]; listed as COL + INRSM,122.3 ± 13.32 s
same,"Retention test, No. of crossings, 1st",[2]; listed as COL + INRSM,2.67±0.56
same,"Retention test, Time spent in darker chamber, 1st",[2]; listed as COL + INRSM,49.5 ± 12.13 s
same,"Retention test, Latency time, 2nd",[2]; listed as COL + INRSM,101.8 ± 10.46 s
same,"Retention test, No. of crossings, 2nd",[2]; listed as COL + INRSM,3.50±0.56
same,"Retention test, Time spent in darker chamber, 2nd",[2]; listed as COL + INRSM,58.67 ± 10.25 s
same,"Retention test, No. of crossings, 3rd",[2],3.17±0.48
same,"Retention test, Latency time, 3rd",[2]; listed as COL + INRSM,77.17 ± 11.18 s
same,"Retention test, Time spent in darker chamber, 3rd",[2]; listed as COL + INRSM,67.17 ± 12.43 s
same,"Acquisition test, 2nd day",[2]; listed as COL + INRSM,11.07 ± 2.195
